Assay results: ChEMBL document CHEMBL1152667, “Synthesis and radiopharmacological investigation of 3-[4'-[(18)F]fluorobenzylidene]indolin-2-one as possible tyrosine kinase inhibitor” (Bioorg Med Chem, 2009)

How the values were obtained:
Femur [1] = test: Biodistribution in Wistar rat femur assessed as standard uptake value at 1.7 MBq, iv administered as single dose measured after 5 mins post-injection by gamma counting; type: ADME, organism-based; details: in vivo
Brain [2] = test: Biodistribution in Wistar rat brain assessed as standard uptake value at 1.7 MBq, iv administered as single dose measured after 30 mins post-injection by gamma counting; type: ADME, organism-based; details: in vivo, 0.5 h
[3] = Biodistribution in Wistar rat stomach at 1.7 MBq, iv administered as single dose measured after 5 mins post-injection by gamma counting; type: ADME, organism-based; details: in vivo
[4] = Ratio of drug level in pancreas to blood in Wistar rat at 1.7 MBq, iv administered as single dose measured after 5 mins post-injection; type: ADME, organism-based
Liver [5] = test: Biodistribution in Wistar rat liver at 1.7 MBq, iv administered as single dose measured after 1 min post-injection by gamma counting; type: ADME, organism-based; details: in vivo
[6] = Biodistribution in Wistar rat thyroid gland assessed as standard uptake value at 1.7 MBq, iv administered as single dose measured after 5 mins post-injection by gamma counting; type: ADME, organism-based; details: in vivo
Liver [7] = test: Biodistribution in Wistar rat liver assessed as standard uptake value at 1.7 MBq, iv administered as single dose measured after 5 mins post-injection by gamma counting; type: ADME, organism-based; details: in vivo
Pancreas [8] = test: Biodistribution in Wistar rat pancreas assessed as standard uptake value at 1.7 MBq, iv administered as single dose measured after 10 mins post-injection by gamma counting; type: ADME, organism-based; details: in vivo
Heart [9] = test: Biodistribution in Wistar rat heart at 1.7 MBq, iv administered as single dose measured after 10 mins post-injection by gamma counting; type: ADME, organism-based; details: in vivo
Pancreas [10] = test: Biodistribution in Wistar rat pancreas assessed as standard uptake value at 1.7 MBq, iv administered as single dose measured after 1 min post-injection by gamma counting; type: ADME, organism-based; details: in vivo
Harderian gland [11] = test: Biodistribution in Wistar rat harderian gland at 1.7 MBq, iv administered as single dose measured after 1 min post-injection by gamma counting; type: ADME, organism-based; details: in vivo
Thymus [12] = test: Biodistribution in Wistar rat thymus at 1.7 MBq, iv administered as single dose measured after 5 mins post-injection by gamma counting; type: ADME, organism-based; details: in vivo
[13] = Ratio of drug level in kidney to blood in Wistar rat at 1.7 MBq, iv administered as single dose measured after 60 mins post-injection; type: ADME, organism-based
Pancreas [14] = test: Biodistribution in Wistar rat pancreas at 1.7 MBq, iv administered as single dose measured after 10 mins post-injection by gamma counting; type: ADME, organism-based; details: in vivo
[15] = Biodistribution in Wistar rat hair/skin assessed as standard uptake value at 1.7 MBq, iv administered as single dose measured after 1 min post-injection by gamma counting; type: ADME, organism-based; details: in vivo
Muscle tissue = test: Biodistribution in Wistar rat muscle assessed as standard uptake value at 1.7 MBq, iv administered as single dose measured after 30 mins post-injection by gamma counting; type: ADME, organism-based; details: in vivo, 0.5 h
Spleen [16] = test: Biodistribution in Wistar rat spleen at 1.7 MBq, iv administered as single dose measured after 60 mins post-injection by gamma counting; type: ADME, organism-based; details: in vivo, 1 h
Pancreas [17] = test: Biodistribution in Wistar rat pancreas at 1.7 MBq, iv administered as single dose measured after 60 mins post-injection by gamma counting; type: ADME, organism-based; details: in vivo, 1 h
Heart [18] = test: Biodistribution in Wistar rat heart at 1.7 MBq, iv administered as single dose measured after 60 mins post-injection by gamma counting; type: ADME, organism-based; details: in vivo, 1 h
Liver [19] = test: Biodistribution in Wistar rat liver assessed as standard uptake value at 1.7 MBq, iv administered as single dose measured after 60 mins post-injection by gamma counting; type: ADME, organism-based; details: in vivo, 1 h
Heart [20] = test: Biodistribution in Wistar rat heart assessed as standard uptake value at 1.7 MBq, iv administered as single dose measured after 10 mins post-injection by gamma counting; type: ADME, organism-based; details: in vivo
Thymus [21] = test: Biodistribution in Wistar rat thymus assessed as standard uptake value at 1.7 MBq, iv administered as single dose measured after 1 min post-injection by gamma counting; type: ADME, organism-based; details: in vivo
Harderian gland [22] = test: Biodistribution in Wistar rat harderian gland at 1.7 MBq, iv administered as single dose measured after 5 mins post-injection by gamma counting; type: ADME, organism-based; details: in vivo
Femur [23] = test: Biodistribution in Wistar rat femur assessed as standard uptake value at 1.7 MBq, iv administered as single dose measured after 30 mins post-injection by gamma counting; type: ADME, organism-based; details: in vivo, 0.5 h
Thymus [24] = test: Biodistribution in Wistar rat thymus assessed as standard uptake value at 1.7 MBq, iv administered as single dose measured after 60 mins post-injection by gamma counting; type: ADME, organism-based; details: in vivo, 1 h
Kidney [25] = test: Biodistribution in Wistar rat kidney at 1.7 MBq, iv administered as single dose measured after 30 mins post-injection by gamma counting; type: ADME, organism-based; details: in vivo, 0.5 h
Spleen [26] = test: Biodistribution in Wistar rat spleen assessed as standard uptake value at 1.7 MBq, iv administered as single dose measured after 1 min post-injection by gamma counting; type: ADME, organism-based; details: in vivo
[27] = Phase 2 elimination half life in Wistar rat at 30 MBq, iv by radio-HPLC analysis; type: ADME, organism-based; details: in vivo, read-out: beta t1/2 (converted)
Blood = test: Biodistribution in Wistar rat blood assessed as standard uptake value at 1.7 MBq, iv administered as single dose measured after 5 mins post-injection by gamma counting; type: ADME, organism-based; details: in vivo
Mus musculus = test: Metabolic stability in mouse at 11 MBq, iv after 45 mins by radio-HPLC analysis; type: ADME, organism-based; details: in vivo, 0.75 h
Thymus [28] = test: Biodistribution in Wistar rat thymus assessed as standard uptake value at 1.7 MBq, iv administered as single dose measured after 30 mins post-injection by gamma counting; type: ADME, organism-based; details: in vivo, 0.5 h
Liver [29] = test: Biodistribution in Wistar rat liver assessed as standard uptake value at 1.7 MBq, iv administered as single dose measured after 1 min post-injection by gamma counting; type: ADME, organism-based; details: in vivo
[30] = Ratio of drug level in adrenal gland to blood in Wistar rat at 1.7 MBq, iv administered as single dose measured after 5 mins post-injection; type: ADME, organism-based
Kidney [31] = test: Biodistribution in Wistar rat kidney assessed as standard uptake value at 1.7 MBq, iv administered as single dose measured after 30 mins post-injection by gamma counting; type: ADME, organism-based; details: in vivo, 0.5 h
Femur [32] = test: Biodistribution in Wistar rat femur at 1.7 MBq, iv administered as single dose measured after 5 mins post-injection by gamma counting; type: ADME, organism-based; details: in vivo
Testes = test: Biodistribution in Wistar rat testes assessed as standard uptake value at 1.7 MBq, iv administered as single dose measured after 5 mins post-injection by gamma counting; type: ADME, organism-based, Testis; details: in vivo
Femur [33] = test: Biodistribution in Wistar rat femur assessed as standard uptake value at 1.7 MBq, iv administered as single dose measured after 10 mins post-injection by gamma counting; type: ADME, organism-based; details: in vivo
Brain [34] = test: Biodistribution in Wistar rat brain assessed as standard uptake value at 1.7 MBq, iv administered as single dose measured after 5 mins post-injection by gamma counting; type: ADME, organism-based; details: in vivo
Pancreas [35] = test: Biodistribution in Wistar rat pancreas at 1.7 MBq, iv administered as single dose measured after 5 mins post-injection by gamma counting; type: ADME, organism-based; details: in vivo
Heart [36] = test: Biodistribution in Wistar rat heart assessed as standard uptake value at 1.7 MBq, iv administered as single dose measured after 30 mins post-injection by gamma counting; type: ADME, organism-based; details: in vivo, 0.5 h
[37] = Phase 1 elimination half life in Wistar rat at 30 MBq, iv by radio-HPLC analysis; type: ADME, organism-based; details: in vivo, read-out: beta t1/2 (converted)
Intestine = test: Biodistribution in Wistar rat intestine at 1.7 MBq, iv administered as single dose measured after 60 mins post-injection by gamma counting; type: ADME, organism-based; details: in vivo, 1 h

**Q.** For `O=C1Nc2ccccc2/C1=C/c1ccc([18F])cc1`, which SUV (Femur [1]) is on record?
**A.** 0.64%

**Q.** And the SUV (Brain [2])?
**A.** 0.41%

**Q.** And the Drug uptake [3]?
**A.** 0.94 %ID

**Q.** And the Kp at 5 min [4]?
**A.** 3

**Q.** And the Drug uptake (Liver [5])?
**A.** 17.16 %ID

**Q.** And the SUV [6]?
**A.** 0.99%

**Q.** What about the SUV (Liver [7]) of the same compound?
**A.** 3.74%

**Q.** And the SUV (Pancreas [8])?
**A.** 1.13%

**Q.** And the Drug uptake (Heart [9])?
**A.** 0.35 %ID

**Q.** What about the SUV (Pancreas [10]) of the same compound?
**A.** 2.4%

**Q.** And the Drug uptake (Harderian gland [11])?
**A.** 0.29 %ID

**Q.** And the Drug uptake (Thymus [12])?
**A.** 0.34 %ID

**Q.** What about the Kp at 1 h [13] of the same compound?
**A.** 7.6

**Q.** And the Drug uptake (Pancreas [14])?
**A.** 0.28 %ID

**Q.** What about the SUV [15] of the same compound?
**A.** 0.67%

**Q.** And the SUV (Muscle tissue)?
**A.** 0.45%

**Q.** And the Drug uptake (Spleen [16])?
**A.** 0.04 %ID

**Q.** And the Drug uptake (Pancreas [17])?
**A.** 0.07 %ID

**Q.** And the Drug uptake (Heart [18])?
**A.** 0.08 %ID

**Q.** What about the SUV (Liver [19]) of the same compound?
**A.** 1.3%

**Q.** What about the SUV (Heart [20]) of the same compound?
**A.** 0.88%

**Q.** What about the SUV (Thymus [21]) of the same compound?
**A.** 1.1%

**Q.** And the Drug uptake (Harderian gland [22])?
**A.** 0.34 %ID

**Q.** What about the SUV (Femur [23]) of the same compound?
**A.** 0.28%

**Q.** What about the SUV (Thymus [24]) of the same compound?
**A.** 0.13%

**Q.** What about the Drug uptake (Kidney [25]) of the same compound?
**A.** 1.45 %ID

**Q.** What about the SUV (Spleen [26]) of the same compound?
**A.** 0.98%

**Q.** What about the half-life [27] of the same compound?
**A.** 4.45 min

**Q.** And the SUV (Blood)?
**A.** 0.56%

**Q.** What about the Stability (Mus musculus) of the same compound?
**A.** Unstable

**Q.** What about the SUV (Thymus [28]) of the same compound?
**A.** 0.26%

**Q.** And the SUV (Liver [29])?
**A.** 2.98%

**Q.** What about the Kp at 5 min [30] of the same compound?
**A.** 10.2

**Q.** And the SUV (Kidney [31])?
**A.** 1.69%

**Q.** What about the Drug uptake (Femur [32]) of the same compound?
**A.** 0.35 %ID

**Q.** And the SUV (Testes)?
**A.** 0.41%

**Q.** And the SUV (Femur [33])?
**A.** 0.51%

**Q.** And the SUV (Brain [34])?
**A.** 1.67%

**Q.** And the Drug uptake (Pancreas [35])?
**A.** 0.38 %ID

**Q.** And the SUV (Heart [36])?
**A.** 0.44%

**Q.** What about the half-life [37] of the same compound?
**A.** 0.133 min

**Q.** And the Drug uptake (Intestine)?
**A.** 30.16 %ID
